According to a melting point compilation (Tetko et al.; mined from patent text by program, amines drawn as free bases though some values may be those of a salt):

Row | melting point [°C] | Structure (SMILES)
1 | 174 | CCOC(=O)C1=NNC(C)=C(C(=O)OC)C1c1cccc([N+](=O)[O-])c1 (stereo not drawn)
2 | 180 | Oc1ccc(Nc2nc(Cl)nc(Cl)n2)cc1Cl
3 | 265 | O=C(Nc1cccc(Oc2ccc3nc(NC(=O)C4CC4)cn3n2)c1)c1ccccc1
4 | 224 | CCOc1cc(-c2cc(C(F)(F)F)nc(-c3ccnc(-c4cccc(S(N)(=O)=O)c4)c3)n2)ccc1C(F)(F)F
5 | 222 to 223 | O=C(C=Cc1ccccc1)Nc1cccc(O)c1
6 | 155 to 157 | CCOC(=O)C1=C(C)NC(SCc2ccc(OC)cc2)=NC1c1cccc([N+](=O)[O-])c1Cl (stereo not drawn)
7 | 143 | COc1cc(C)c(C(=O)c2c(C)c(C)cc(C)c2C)c(OC)c1OC
8 | 210 to 212 | COc1ccnc(CCc2nc3cc(-c4ccc(S(=O)(=O)N5CCOCC5)cc4)cnc3[nH]2)c1
9 | 95 to 98 | CCOC(=O)Cc1cccc(Cn2ccc(OCc3ccc(F)cc3F)c(Br)c2=O)c1
10 | 132 | CNC(=O)c1cc(Br)cc(-c2ccccc2)c1
11 | 169 to 171 | CCCCc1ncc(/C=C(\Cc2cccs2)C(=O)O)n1CCc1ccc(CC(=O)O)cc1
12 | 80 to 82 | CC(C)(C)OC(=O)NCCOc1ccc(OCC2(C)OCCO2)cc1
13 | 184 to 185 | C#CCN(C(=O)OC)C1CN(C(=O)Nc2ccc(OC(F)(F)F)cc2)N=C1c1ccc(Cl)cc1 (stereo not drawn)
14 | 239 to 242 | Cc1nc(-c2cc(Cl)ccc2Cl)n2c1nnc1ccc(N3CCOCC3)cc12
15 | 63 to 67 | COC(=O)c1ccc(I)cc1N
16 | 85 | N#Cc1ccc(C(=O)c2ccc(F)cc2)c(CO)c1
17 | 159 | COc1ccc(C(=NO)c2ccc(Cl)cc2)c(O)c1
18 | 112 | CN(C)C(=O)Sc1ccc(C(=O)c2ccccc2C#N)cc1
19 | 176 | CC1=C(C=O)C(C)(C)c2c(C)c(C)c(C)c(C)c21
20 | 160 | CCOC(=O)N1CCC(Cc2nc3ccccc3n2Cc2cccc(C)n2)CC1
21 | 189 to 191 | Oc1ccc(Cc2nc(-c3cccs3)c[nH]2)cc1
22 | 216 | Cn1cc(-c2cccc(Br)c2)c(=O)c(-c2cccc(Br)c2)c1
23 | 141 | CS(=O)(=O)Oc1cccc(N2CCN(CCCCCC(=O)N3Cc4ccccc4C3)CC2)c1
24 | 231 | O=C(Nc1cccc(S(=O)(=O)N2CCOCC2)c1)c1cnn2c(C(F)F)cc(-c3ccc(Cl)c(Cl)c3)nc12

Row | melting point [°C] | Structure (SMILES)
25 | 83 to 84 | CCOc1ccc(O)c(CC(=O)OC)c1
26 | 86 to 87 | COCCCOc1cc(CC(CC(NC(=O)OC(C)(C)C)C2CC(C)C(=O)O2)C(C)C)ccc1OC (stereo not drawn)
27 | 191 to 200 | Cc1nc(N2N=C(c3ccc([N+](=O)[O-])cc3)c3cc4c(cc3CC2C)OCO4)no1 (stereo not drawn)
28 | 195 to 200 | CC(=O)c1ccc2cc(O)ccc2c1O
29 | 164 to 166 | COc1ccc(N2N=C(N)CC2c2ccccc2)cc1 (stereo not drawn)
30 | > 300 | CCCNS(=O)(=O)c1cc2cc(P(=O)(OCC)OCC)c(=O)[nH]c2cc1Cl
31 | 103 to 104 | CNS(=O)(=O)c1cc(Cl)sc1C(=O)O
32 | 163 to 164 | CC(C)(C)c1ccccc1N1CCN(C(=O)CC#N)CC1
33 | 215 to 219 | CCCCOC(=O)C(COC(C)(C)C)NC(=O)c1ccc2c(Cl)cnc(NC(=N)N)c2c1 (racemic)
34 | 40 | CSc1ccc(N=C=O)cc1C(F)(F)F
35 | 115 to 116 | COC(=O)CN(C1(C(=O)C2CCCCC2)C=C(Cl)C=CC1)S(=O)(=O)c1ccc(OC)cc1 (stereo not drawn)
36 | 264 to 265 | N=C(N)Nc1nc2cc(Cl)cc(Cl)c2[nH]1
37 | 115 to 116 | CCCCc1c(/C=C/C(=O)Oc2ccc([N+](=O)[O-])cc2)ccc2c(OC)cccc12
38 | 148 to 149 | NC(=S)NCCC(O)(c1ccc(F)cc1)c1ccccn1 (stereo not drawn)
39 | 132 to 134 | CC(O)(C(=O)Nc1ccc(C(=O)c2ccccc2)c(F)c1)C(F)(F)F (stereo not drawn)
40 | 255 to 258 | CCNC(=O)c1ccc(N2CCN(Cc3cnc4c(c3)[nH]c(=O)n3cccc43)CC2)c(C)c1
41 | 170 to 173 | CCOC(=O)NNC(=O)NCCOc1ccccc1
42 | 218 | CCCCC(=O)OCC(=O)C1C(C)CC2C3CC(Cl)C4=CC(=O)C=CC4(C)C3(Cl)C(O)CC21C (stereo not drawn)
43 | 306 | Cn1cc(-c2nnn[nH]2)c(=O)c2ccccc21
44 | 164 | Cn1c(OC2CCOC2)n[nH]c1=O (stereo not drawn)
45 | 115 to 117 | C=CCN1CC(c2ccccc2)=C(OCCN(C)C)C1=O
46 | 75 to 77 | COC(=O)C=CC(=O)N[C@@H](CO)c1ccccc1
47 | 168 to 170 | Cc1ccc(S(=O)(=O)N2CCC3(C=Cc4ccccc43)CC2)cc1
48 | 217 to 219 | CSCc1nc2c(N)nc3ccccc3c2n1Cc1ccccc1

Row | melting point [°C] | Structure (SMILES)
49 | 155 to 156 | CONC(=NCCSCc1[nH]cnc1C)NC#N
50 | 180 to 183 | CC(C)Sc1sc(-c2nnn(C)n2)c2c1C(=O)CC(C)(C)C2
51 | 112 to 115 | CCCCCCCCCCCCOS(=O)(=O)NC(=O)Nc1c(C(C)C)cccc1C(C)C
52 | 92 to 94 | COc1ccc(CS[C@@H]2C[C@@H](COc3ccccc3)N(S(C)(=O)=O)C2)cc1
53 | 198 to 199 | Cc1ccc(C(=O)N[C@H](Cc2ccc(C(F)(F)F)cc2)[C@@H](O)c2ccc(F)cc2)c2ccccc12 (racemic)
54 | 178 to 180 | O=C1NCCCN1C1CCN(Cc2ccccc2)CC1
55 | 108 to 109 | COC(=O)c1cc(-c2ccc(OC)c(Cl)c2)nn(CC(C)C)c1=O
56 | 156 to 157 | O=C(NC1CCc2ccccc21)c1ccc2cnccc2n1 (stereo not drawn)
57 | 212 to 214 | O=C1CCC2=C(CCc3cc(Cl)cc(Cl)c32)N1
58 | 58 to 60 | Cc1cc(SCc2cccc(C(F)(F)F)c2)c(C)cc1N
59 | 162 to 163 | CN1C(=O)C(=O)c2cccnc21
60 | 197 to 199 | CCOC(=O)c1sc(NC(=O)c2cc(Br)ccc2O)nc1-c1ccccc1
61 | 226 to 227 | CCCc1nc2c(N)nc3ccccc3c2n1Cc1cc(-c2ccc(F)cc2)no1
62 | 187 to 189 | O=[N+]([O-])c1cc(-n2ccnc2)ccc1Sc1cccc2cnccc12
63 | 100 | COc1ccc(CC(O)C(=O)c2ccccc2)cc1 (stereo not drawn)
64 | 138 to 139 | CCCc1nc(Cl)c(-c2ccc(C)cc2)c(NS(=O)(=O)c2ccc(C(C)(C)C)cc2)n1
65 | 145 to 170 | Nc1cccc(-c2ccc(CCNCc3ccc(Cl)c(Cl)c3)c3ccccc23)n1
66 | 210 to 212 | Cn1c(=O)c2c(NC(=O)C3CCCCC3)onc2n(C)c1=O
67 | 66 to 68 | NNC(=S)c1ccccc1
68 | 112 to 117 | COC(=O)Nc1nc(C(=O)C(=O)OC)ns1
69 | 184 to 185 | Cc1c(NC(=O)CC(C)(C)C)cc2c(c1C)OC(C)(C)C2O (stereo not drawn)
70 | 234 | O=C(Cc1ccc(OCc2ccccc2)cc1)NC1(C(=O)O)Cc2ccc(-c3ccc(Cl)cc3)cc2C1 (stereo not drawn)

Row | Structure (SMILES) | melting point [°C]
71 | CC1CN(c2cc3ccccc3c(=O)[nH]2)CC(C)N1 (stereo not drawn) | 208 to 210
72 | Cc1cccc2c1C(=O)N(C)Cc1c(I)ncn1-2 | 106 to 108
73 | CN1Cc2c(-c3noc(CN4CCCCC4)n3)ncn2-c2ccc(F)cc2C1=O | 182 to 184
